Results taken from publication PMC6882824, “Engineering of chimeric peptides as antagonists for the G protein-coupled receptor, RXFP4” (Scientific Reports, 2019).
Read-outs that look alike come from different tables or passages of the source. Bridge positions count the residues as written; N and C are the ends. Peptide text beside a SMILES is read from it. I, II: the chains in the order shown.

Legend:
RXFP4 [1] = target: T1, RXFP4 (Homo sapiens, UniProt Q8TDU9); experiment: cAMP agonist assay (inhibition of forskolin-induced cAMP, pCRE β-galactosidase reporter) in CHO-K1-RXFP4 cells; type: cell-based; parameters: expressed in transfected cells; host or cells: CHO-K1 (ATCC), stably transfected; conditions: CHO-K1-RXFP4 cells, inhibition of 1 µM forskolin-induced cAMP, 6 hours; mean ± SEM, n in cell
T1 sequence (Q8TDU9 whole entry): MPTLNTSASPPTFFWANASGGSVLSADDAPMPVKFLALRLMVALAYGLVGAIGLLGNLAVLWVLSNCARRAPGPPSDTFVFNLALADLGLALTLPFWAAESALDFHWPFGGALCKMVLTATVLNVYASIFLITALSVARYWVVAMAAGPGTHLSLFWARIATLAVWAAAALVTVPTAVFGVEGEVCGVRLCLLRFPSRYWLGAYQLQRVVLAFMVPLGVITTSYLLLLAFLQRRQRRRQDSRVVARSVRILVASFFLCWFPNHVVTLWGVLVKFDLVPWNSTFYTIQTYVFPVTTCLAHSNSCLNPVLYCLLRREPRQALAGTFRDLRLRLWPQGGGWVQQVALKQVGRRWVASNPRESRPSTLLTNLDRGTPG
Method: (§1) The peptides were tested for their ability to inhibit forskolin induced cAMP activity in CHO-K1-RXFP3 or CHO-K1-RXFP4 cells transfected with a pCRE (cAMP Response Element) β-galactosidase reporter plasmid as previously described[9],[34]. For agonist assays cells were stimulated with forskolin (5 µM for RXFP3, 1 µM for RXFP4) plus or minus increasing concentrations of each peptide for 6 hours. For antagonist assays cells were stimulated with forskolin as in agonist assays plus increasing concentrations of each peptide for 10 minutes followed by stimulation with agonist at an ~EC80 concentration for a further 6 hours (10 nM Analogue 2 for RXFP3 and 16.6 nM Analogue 13 for RXFP4). Each peptide was tested in triplicate and each experiment was performed independently at least three times. Agonist data was expressed as the % Forskolin activity whereby 100% was defined as Forskolin alone and 0% as maximum agonist stimulation (1 µM Analogue 2 for RXFP3 and 1 µM Analogue 13 for RXFP4). […] Data were analysed and plotted using GraphPad PRISM 8 and are expressed as the mean ± SEM of the pooled data. Statistical analysis was conducted using one-way ANOVA with Uncorrected Fisher’s LSD post-hoc analysis in GraphPad Prism version 8.

RXFP4 [2] = target: T1, RXFP4; experiment: cAMP antagonist assay against 16.6 nM analogue 13 in CHO-K1-RXFP4 cells; type: cell-based; parameters: expressed in transfected cells; host or cells: CHO-K1 (ATCC), stably transfected; conditions: for Emax: SEM, read-out: RXFP4 Emax (antagonist efficacy)
Method: as §1

RXFP3 [3] = target: T2, RXFP3 (Homo sapiens, UniProt Q9NSD7); experiment: cAMP agonist assay (inhibition of forskolin-induced cAMP, pCRE β-galactosidase reporter) in CHO-K1-RXFP3 cells; type: cell-based; conditions: CHO-K1-RXFP3 cells, inhibition of 5 µM forskolin-induced cAMP, 6 hours; mean ± SEM, n in cell
T2 construct: expressed in transfected cells; host or cells: CHO-K1 (ATCC), stably transfected
T2 sequence (Q9NSD7 1-469): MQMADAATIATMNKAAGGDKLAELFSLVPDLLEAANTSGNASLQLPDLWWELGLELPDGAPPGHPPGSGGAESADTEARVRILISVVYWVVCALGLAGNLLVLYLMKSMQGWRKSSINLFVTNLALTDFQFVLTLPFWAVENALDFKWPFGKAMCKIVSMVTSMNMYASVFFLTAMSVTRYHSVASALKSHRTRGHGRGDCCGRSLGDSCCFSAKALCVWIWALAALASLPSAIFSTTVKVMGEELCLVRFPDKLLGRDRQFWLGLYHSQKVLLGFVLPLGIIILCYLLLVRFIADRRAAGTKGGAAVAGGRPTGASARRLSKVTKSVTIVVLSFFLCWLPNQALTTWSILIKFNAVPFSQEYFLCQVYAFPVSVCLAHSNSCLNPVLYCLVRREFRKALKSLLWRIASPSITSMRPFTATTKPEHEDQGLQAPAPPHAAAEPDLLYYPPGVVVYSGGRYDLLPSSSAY
Method: as §1

RXFP3 [4] = target: T2, RXFP3; experiment: cAMP antagonist assay against 10 nM analogue 2 in CHO-K1-RXFP3 cells; type: cell-based; conditions: for IC50: CHO-K1-RXFP3 cells; for Emax: SEM, read-out: RXFP3 Emax (antagonist efficacy)
Method: as §1

RXFP4 [5] = target: T1, RXFP4; experiment: Competition binding in CHO-K1-RXFP4 cells (Eu-DTPA-mINSL5); parameters: expressed in transfected cells; host or cells: CHO-K1 (ATCC), stably transfected; conditions: CHO-K1 cells stably transfected with RXFP4; competition with 5 nM Eu-DTPA-mINSL5; read-out: RXFP4 Binding Ki
Method: (§2) Chinese hamster ovary CHO-K1 cells (sourced from American Type Culture Collection (ATCC), Maryland, USA) stably transfected with RXFP3[33] or RXFP4[9] were plated out onto precoated poly-L-lysine 96-well view plates at a density of 50 000 cells per well. Medium was aspirated off and the cells were washed with phosphate-buffered saline (PBS) before competition binding assays were performed with 5 nM Eu-H3B1–22R[34] (RXFP3 ligand) or 5 nM Eu-DTPA-mINSL5[9] (RXFP4 ligand) as previously described. Competition binding curves were performed in triplicate and each experiment was performed independently at least three times. Fluorescent measurements were carried out on a BMG POLARstar plate reader (BMG Labtech, Melbourne, Australia. Pooled data are presented as mean ± S.E of specific binding and are fitted using one-site binding curve in GraphPad Prism version 8 (GraphPad Inc., San Diego, USA). Statistical analyses were conducted using one-way analysis of variance with uncorrected Fisher’s least significant difference (LSD) post-hoc analysis in GraphPad Prism version 8.

RXFP3 [6] = target: T2, RXFP3; experiment: Competition binding in CHO-K1-RXFP3 cells (Eu-H3B1-22R); conditions: CHO-K1 cells stably transfected with RXFP3; competition with 5 nM Eu-H3B1-22R; read-out: RXFP3 Binding Ki
Method: as §2

SMILES | RXFP4 Activity pEC50 (RXFP4 [1]) | IC50 (RXFP4 [2]; CHO-K1-RXFP4 cells, block of 16.6 nM analogue 13, read-out: RXFP4 Antagonist potency IC50) [nM] | Emax (RXFP4 [2]) [%] | RXFP3 Activity pEC50 (RXFP3 [3]) | IC50 (RXFP3 [4]; block of 10 nM analogue 2, read-out: RXFP3 Antagonist potency IC50) [nM] | Emax (RXFP3 [4]) [%] | Ki (RXFP4 [5]) [nM] | Ki (RXFP3 [6]) [nM] | IC50 (RXFP3 [4]; peptide 10 minutes, then 10 nM analogue 2 for 6 hours, 5 µM forskolin, mean ± SEM, read-out: RXFP3 Antagonist potency pIC50 (converted)) [nM]
CC[C@H](C)[C@@H]1NC(=O)[C@H](Cc2ccccc2)NC(=O)[C@H](CCC(=O)O)NC(=O)[C@H](CC(C)C)NC(=O)CNC(=O)[C@@H](NC(=O)[C@H](CC(C)C)NC(=O)[C@H](CCCNC(=N)N)NC(=O)[C@@H](NC(=O)CNC(=O)[C@H](Cc2ccc(O)cc2)NC(=O)[C@@H]2CCCN2C(=O)[C@H](C)NC(=O)[C@H](C)NC(=O)[C@@H](N)CCCNC(=N)N)C(C)C)CSSC[C@@H]2NC(=O)[C@@H](NC(=O)[C@H](CC(C)C)NC(=O)[C@@H](NC(=O)[C@H](CCC(N)=O)NC(=O)[C@H](CC(C)C)NC(=O)[C@H](CC(=O)O)NC(=O)[C@@H]3CCC(=O)N3)[C@@H](C)O)CSSC[C@H](NC(=O)CNC(=O)[C@H](CC(=O)O)NC(=O)[C@H]([C@@H](C)O)NC2=O)C(=O)N[C@@H](CO)C(=O)N[C@@H](CCSC)C(=O)N[C@@H]([C@@H](C)O)C(=O)N[C@@H](CC(=O)O)C(=O)N[C@@H](CC(C)C)C(=O)N[C@@H](CO)C(=O)N[C@@H](C)C(=O)N[C@@H](CC(C)C)C(=O)N[C@H](C(=O)O)CSSC[C@@H](C(=O)N[C@@H](CCCNC(=N)N)C(=O)O)NC(=O)[C@H]([C@@H](C)O)NC(=O)[C@H](Cc2ccccc2)NC(=O)[C@H]([C@@H](C)CC)NC(=O)[C@H](C(C)C)NC(=O)[C@H](C)NC(=O)[C@H](CCCNC(=N)N)NC1=O [Analogue 14] | Weak partial agonist (6) | 331 | 37.3 ± 7.6 | No activity (3) | 263 | 66.5 ± 14.8 | 24 | 24 | –
CC[C@H](C)[C@@H]1NC(=O)[C@H](Cc2ccccc2)NC(=O)[C@H](CCC(=O)O)NC(=O)[C@H](CCCNC(=N)N)NC(=O)CNC(=O)[C@@H](NC(=O)[C@H](CC(C)C)NC(=O)[C@H](CCCNC(=N)N)NC(=O)[C@@H](NC(=O)CNC(=O)[C@H](Cc2ccc(O)cc2)NC(=O)[C@@H]2CCCN2C(=O)[C@H](C)NC(=O)[C@H](C)NC(=O)[C@@H](N)CCCNC(=N)N)C(C)C)CSSC[C@H](N)C(=O)N[C@@H]([C@@H](C)O)C(=O)N[C@@H](CC(=O)O)C(=O)NCC(=O)N[C@@H](C)C(=O)N[C@@H](CO)C(=O)N[C@@H](CCSC)C(=O)N[C@@H](CCCCN)C(=O)N[C@@H](CC(=O)O)C(=O)N[C@@H](CC(C)C)C(=O)N[C@@H](CO)C(=O)N[C@@H](C)C(=O)N[C@@H](CC(C)C)C(=O)N[C@H](C(=O)O)CSSC[C@@H](C(=O)N[C@@H](CCCNC(=N)N)C(=O)O)NC(=O)[C@H]([C@@H](C)O)NC(=O)[C@H](Cc2ccccc2)NC(=O)[C@H]([C@@H](C)CC)NC(=O)[C@H](C(C)C)NC(=O)[C@H](C)NC(=O)[C@H](CCCNC(=N)N)NC1=O [Analogue 15] (I: H-RAAPYGVRLCGREFIRAVIFTCR-OH / II: H-CTDGASMKDLSALC-OH; disulfide I:10-II:1, I:22-II:14) | Weak partial agonist (5) | – | 49.4 ± 6.2 | No activity (4) | – | 43.5 ± 12.1 | 22.9 | 15.5 | > 10000
